The values that follow come from patent US7547519B2, “Methods of diagnosing multidrug resistant tuberculosis” (The United States of America as represented by the …, priority 2000, dated 2009).

One assay deals with MSm. As to the kind of experiment: microbe, parasite or virus in culture. The format is cell-based, Mycobacterium smegmatis.
The next assay deals with MTb H37Rv. The settings on record: wild type MTb; cited from earlier work.

In brackets after ≈: the same amount, converted by molar mass.

`CCc1cc(C(N)=S=O)ccn1` [ETA S-oxide]: in the assay with MSm, the “absolute MIC compared with ETA” value is listed as “lower”; the “effect of EtaR/EtaA overexpression on susceptibility” value was “EtaR conferred resistance and EtaA conferred hypersensitivity”.

Turning to `CCc1cc(C(N)=S)ccn1` [ETA, ethionamide], in the assay with MSm, the “concentration at which growth occurred” value is 50 µg/mL, the “concentration at which transformants were able to grow” value is listed as “greater than 200 μg/ml” and the “concentration with noticeable growth inhibition” value stood at 2.5 µg/mL. The MIC with MSm (Mycolicibacterium smegmatis) is above 62.5 µg/mL. The MIC in the assay on MTb H37Rv was 1.0 µg/mL (≈ 6.02 µM).

In the case of `NNC(=O)c1ccncc1` [INH, isoniazid], the susceptibility to killing entry with MSm is given as “equally susceptible”.
